Source: patent US20090239748A1, “Fungicidal Mixtures Based on 2,5-Disubstituted N-Biphenylpyrazolcarboxamides” (BASF Aktiengesellschaft, priority 2005, published 2009)

Tests used:
Puccinia recondita = test: Protective activity against Puccinia recondita on wheat (brown rust of wheat); format: in vivo
Protocol: (§1) The active compounds, separately or jointly, were prepared as a stock solution comprising 25 mg of active compound which was made up to 10 ml using a mixture of acetone and/or dimethyl sulfoxide and the emulsifier Uniperol® EL (wetting agent having an emulsifying and dispersing action based on ethoxylated alkylphenols) in a ratio by volume of solvent/emulsifier of 99:1. The mixture was then made up to 100 ml with water. This stock solution was diluted with the solvent/emulsifier/water mixture described to give the concentration of active compound stated below.
(§2) Alternatively, the active compounds epoxiconazole and pyraclostrobin were used as a commercial formulation and diluted with water to the stated active compound concentrations.
(§3) The visually determined percentages of infected leaf areas were converted into efficacies in % of the untreated control.
(§4) The efficacy (E) is calculated as follows using Abbot's formula: […]
α corresponds to the fungicidal infection of the treated plants in % and β corresponds to the fungicidal infection of the untreated (control) plants in %
An efficacy of 0 means that the infection level of the treated plants corresponds to that of the untreated control plants; an efficacy of 100 means that the treated plants were not infected.
(§5) The expected efficacies of active compound mixtures were determined using Colby's formula [R. S. Colby, “Calculating synergistic and antagonistic responses of herbicide combinations”, Weeds 15, 20-22 (1967)] and compared with the observed efficacies.
(§6) E=x+y−x·y/100 • E expected efficacy, expressed in % of the untreated control, when using the mixture of the active compounds A and B at the concentrations a and b; • x efficacy, expressed in % of the untreated control, when using the active compound A at the concentration a; • y efficacy, expressed in % of the untreated control, when using the active compound B at the concentration b.
Leaves of potted wheat seedlings of the cultivar “Kanzler” were sprayed to runoff point with an aqueous suspension having the active compound concentration stated below. The next day, the treated plants were inoculated with a spore suspension of brown rust of wheat (Puccinia recondita). The plants were then placed in a chamber with high atmospheric humidity (90 to 95%) at 20 to 22° C. for 24 hours. During this time, the spores germinated and the germ tubes penetrated into the leaf tissue. The next day, the test plants were returned to the greenhouse and cultivated at temperatures between 20 and 22° C. and at 65 to 70% relative atmospheric humidity for a further 7 days. The extent of the rust fungus development on the leaves was then determined visually.

Botrytis cinerea = test: Activity against gray mold on bell pepper leaves caused by Botrytis cinerea, 1 day protective application; format: in vivo; details: sprayed 1 day before inoculation, read after 5 days
Protocol: as §1, §3, §4
(§7) The expected efficacies of active compound mixtures were determined using Colby's formula [R. S. Colby, “Calculating synergistic and antagonistic responses of herbicide combinations”, Weeds 15, 20-22 (1967)] and compared with the observed efficacies. […]
Bell pepper seedlings of the cultivar “Neusiedler Ideal Elite” were, after 2-3 leaves were well developed, sprayed to runoff point with an aqueous suspension having the active compound concentration stated below. […] After 5 days, the extent of the fungal infection on the leaves could be determined visually in %.

Phakopsora pachyrhizi = test: Curative activity against soybean rust caused by Phakopsora pachyrhizi; format: in vivo; details: 0.25 mg/l, curative (sprayed 2 days after inoculation), 14 days
Protocol: as §1, §2, §3, §4, §7
Leaves of potted soybean seedlings of the cultivar “Oxford” were inoculated with a spore suspension of soybean rust (Phakopsora pachyrhizi). […] The extent of the rust fungus development on the leaves was then determined.

Septoria tritici = test: Activity against the Septoria leaf spot pathogen Septoria tritici in the microtiter test; format: cell-based; details: microtiter plate, 405 nm, day 7
Protocol: as §5, §6
For this test, the active compounds were formulated separately as a stock solution having a concentration of 10 000 ppm in dimethyl sulfoxide.
The stock solution was mixed according to the ratio, pipetted into a microtiter plate (MTP) and diluted with an aqueous malt-based fungus nutrient medium to the stated active compound concentration. An aqueous spore suspension of Septoria tritici was then added. […] Using an absorbtion photometer, the MTPs were measured at 405 nm on day 7 after the inoculation.
The measured parameters were compared to the growth of the active compound-free control variant (100%) and the fungus- and active compound-free blank value to determine the relative growth in % of the pathogens in the individual active compounds.

[1] = tested on: Pyrenophora [syn. Drechslera] teres; test: Activity against net blotch of barley caused by Pyrenophora teres, 1 day protective application; format: in vivo; details: 0.25 mg/l, read after 6 days
Protocol: The active compounds, separately or jointly, were prepared as a stock solution comprising 25 mg of active compound which was made up to 10 ml using a mixture of acetone and/or dimethyl sulfoxide and the emulsifier Uniperol® EL (wetting agent having an emulsifying and dispersing action based on ethoxylated alkylphenols) in a ratio by volume of solvent/emulsifier of 99:1. The mixture was then made up to 100 ml with water. This stock solution was diluted with the solvent/emulsifier/water mixture described to give the concentration of active compound stated below. […]
as §3, §4, §7
Leaves of potted barley seedlings were sprayed to runoff point with an aqueous suspension having the active compound concentration stated below. […] After 6 days, the extent of the development of the disease was determined visually in % infection of the entire leaf area.

## Fc1ccc([C@]2(Cn3cncn3)O[C@H]2c2ccccc2Cl)cc1 (racemic) [epoxiconazole, (2RS,3SR)-1-[3-(2-chlorophenyl)-2,3-epoxy-2-(4-fluorophenyl)propyl]-1H-1,2,4-triazole, reference compound]
Puccinia recondita; 0.25 mg/l
  Observed effect (% infection): 5%

## CC1CCN(c2c(-c3c(F)cc(F)cc3F)c(Cl)nc3ncnn23)CC1 [5-chloro-7-(4-methylpiperidin-1-yl)-6-(2,4,6-trifluorophenyl)-[1,2,4]triazolo[1,5-a]-pyrimidine, reference compound]
Botrytis cinerea; 4 mg/l
  Observed effect (% infection): 40%

## Cn1cc(C(=O)Nc2ccccc2-c2cc(F)ccc2F)c(C(F)(F)F)n1 [No. I.1, N-(ortho-(2,5-difluorophenyl)phenyl)-1-methyl-3-trifluoromethylpyrazole-4-carboxamide]
Botrytis cinerea; 1 mg/l
  Observed effect (% infection): 0%
Puccinia recondita; 1 mg/l
  Observed effect (% infection): 5%
Phakopsora pachyrhizi
  Observed effect (% infection): 29%
Septoria tritici; 1 mg/l
  Observed effect (% infection): 0%

## Cn1cc(C(=O)Nc2ccccc2-c2cc(F)ccc2F)c(C(F)F)n1 [No. I.2, N-(2′,5′-difluorobiphenyl-2-yl)-1-methyl-3-difluoromethyl-1H-pyrazole-4-carboxamide]
Puccinia recondita; 1 mg/l
  Observed effect (% infection): 52%
[1]
  Observed effect (% infection): 0%
other
  melting point: 139 to 141 °C

## Cn1cc(C(=O)Nc2ccccc2-c2cc(Cl)ccc2Cl)c(C(F)F)n1 [No. I.4, N-(2′,5′-dichlorobiphenyl-2-yl)-1-methyl-3-difluoromethyl-1H-pyrazole-4-carboxamide]
other
  melting point: 130 to 132 °C

## Cn1cc(C(=O)Nc2ccccc2-c2cc(Cl)ccc2Cl)c(C(F)(F)F)n1 [No. I.5, N-(2′,5′-dichlorobiphenyl-2-yl)-1-methyl-3-trifluoromethyl-1H-pyrazole-4-carboxamide]
other
  melting point: 131 to 135 °C

## COc1ccc(C(=CC(=O)N2CCOCC2)c2ccc(Cl)cc2)cc1OC [dimethomorph, 3-(4-chlorophenyl)-3-(3,4-dimethoxyphenyl)-1-morpholin-4-yl-propenone, reference compound]
Septoria tritici; 4 mg/l
  Observed effect (% infection): 20%

## COc1cc(C)c(C(=O)c2c(OC)ccc(Br)c2C)c(OC)c1OC [metrafenone, 3′-bromo-2,3,4,6′-tetramethoxy-2′,6-dimethylbenzophenone, reference compound]
Puccinia recondita; 4 mg/l
  Observed effect (% infection): 0%

## COC(=O)N(OC)c1ccccc1COc1ccn(-c2ccc(Cl)cc2)n1 [pyraclostrobin, methyl N-{2-[1-(4-chlorophenyl)-1H-pyrazol-3-yloxymethyl]phenyl}(N-methoxy)carbamate, reference compound]
[1]
  Observed effect (% infection): 33%
Phakopsora pachyrhizi
  Observed effect (% infection): 29%
